Earlier results in patent US6670388B1, “Fatty acid synthase inhibitors” (SmithKline Beecham Corporation, priority 2000, dated 2003).

Key:
bacteria = details: in vivo and in vitro
[1] = system: all three condensing enzymes

| SMILES | antibacterial activity (bacteria) | inhibition of FabB & F (FabB & F) | inhibition of condensing enzymes [1] | inhibition of mammalian FASs (mammalian FASs) |
| --- | --- | --- | --- | --- |
| C/C=C/C/C=C/CCC(=O)[C@H]1O[C@H]1C(N)=O [cerulenin] | bactericidal | potent inhibitor of FabB & F |  |  |
| C=C/C(C)=C/[C@@]1(C)SC(=O)C(C)=C1O [thiolactomycin] | broad-spectrum antibacterial activity both in vivo and in vitro |  | specifically inhibit all three condensing enzymes | does not inhibit mammalian FASs |
